Some test systems named below: HOP-62 NSCLC; HOP-92 NSCLC; MALME-3M melanoma; MDA-MB-231 breast; SF-295 CNS; SK-MEL-5 melanoma; SN12C renal; SNB-19 CNS; SR leukemia; TK-10 renal.
Common to all, as to assay: NCI anticancer screen, dose series, 48 h

Where “and” joins values, the source holds several entries; their conditions need not be identical. Identical values can stand only once.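 Results reflect a 48-hour exposure of cells in 96-well plates to compound at five concentrations. Abbreviation: GI50, concentration required for 50% inhibition of growth. TGI: concentration producing complete growth inhibition.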

`CC1OC(OC2C(O[C@H]3CC[C@@]4(C)C(=CC[C@H]5[C@@H]6C[C@@H]7O[C@]8(CC[C@@H](C)CO8)[C@@H](C)[C@@H]7[C@@]6(C)CC[C@@H]54)C3)OC(CO)C(OC3OC(CO)C(O)C3O)C2O)C(O)C(O)C1O` (some centres undefined): the GI50 was 1.13 µM in the assay on HOP-62 NSCLC; 1.22 µM with HOP-92 NSCLC; 0.324 µM in the assay with MALME-3M melanoma; 0.497 µM in the assay with MDA-MB-231 breast; 0.448 µM in the assay with SF-295 CNS; 0.487 µM in the assay with SK-MEL-5 melanoma. The results for the GI50 in the assay on SN12C renal and in the assay with SNB-19 CNS were 0.243 µM and 0.649 µM, respectively. Besides, the TGI is 1.84 µM and 2.34 µM with HOP-62 NSCLC; 1.98 µM and 2.46 µM in the assay with HOP-92 NSCLC; 1.61 µM and 0.891 µM in the assay with MALME-3M melanoma; 1.6 µM and 1.65 µM in the assay on MDA-MB-231 breast; 1.53 µM and 1.62 µM in the assay with SF-295 CNS; 1.43 µM and 1.67 µM in the assay with SK-MEL-5 melanoma. The TGI with SN12C renal was 1.22 µM and 0.678 µM; in the assay with SNB-19 CNS, 1.48 µM and 1.82 µM; in the assay with SR leukemia it was 2.25 µM; with TK-10 renal, 2.85 µM and 2.24 µM.
As to `CC1=C(CNO)C2=C(C)C3(CC3)[C@@](C)(O)C(=O)C2=C1`, the GI50 with HOP-62 NSCLC was 0.61 µM; in the assay on HOP-92 NSCLC, 1.12 µM; with MALME-3M melanoma it was 1.81 µM; in the assay on MDA-MB-231 breast it was 2.03 µM; with SF-295 CNS it was 0.982 µM; with SK-MEL-5 melanoma it was 1.68 µM. For the same compound, the GI50 with SN12C renal is 2.77 µM; in the assay with SNB-19 CNS, 1.81 µM; in the assay on SR leukemia, 4.49 µM; in the assay with TK-10 renal, 3.24 µM. The TGI in the assay on HOP-62 NSCLC was determined as 4.57 µM; with HOP-92 NSCLC, 4.62 µM; in the assay with MALME-3M melanoma it was 3.71 µM; with MDA-MB-231 breast, 7.14 µM; in the assay on SF-295 CNS it was 4.42 µM; in the assay with SK-MEL-5 melanoma it was 3.22 µM. The TGI in the assay with SN12C renal is > 100 µM; in the assay on SNB-19 CNS it was 25.5 µM; in the assay on SR leukemia, > 100 µM; with TK-10 renal, 8.4 µM.
With `O=c1nc2[nH]c3c(-c4n[nH]c(=O)[nH]c4=O)cccc3c2n[nH]1`, the GI50 in the assay on HOP-62 NSCLC was > 100 µM; in the assay on HOP-92 NSCLC, 78.1 µM; with MALME-3M melanoma, > 100 µM; with MDA-MB-231 breast it was > 100 µM; in the assay with SF-295 CNS, > 100 µM; with SK-MEL-5 melanoma, > 100 µM. For the same compound, the GI50 with SN12C renal, in the assay on SNB-19 CNS, with SR leukemia and with TK-10 renal was > 100 µM throughout. Also, the TGI in the assay on HOP-62 NSCLC, with HOP-92 NSCLC, with MALME-3M melanoma, with MDA-MB-231 breast, in the assay on SF-295 CNS and with SK-MEL-5 melanoma was > 100 µM throughout. Further, the TGI with SN12C renal, in the assay on SNB-19 CNS, in the assay with SR leukemia and in the assay on TK-10 renal was > 100 µM throughout.
As to `CCCCC[C@@H](C/C=C/CCC(=O)NC/C(=C/Cl)[C@H]1C(=O)C(C)(C)C(=O)[C@@H](C)[C@@]1(C)O)OC`, the GI50 was 19.2 µM in the assay with HOP-92 NSCLC; 18.9 µM with MALME-3M melanoma; 16 µM with MDA-MB-231 breast; 13.5 µM in the assay on SF-295 CNS; 17.3 µM with SK-MEL-5 melanoma; 17.3 µM in the assay on SN12C renal. Also, the GI50 with SNB-19 CNS is 20.3 µM; with SR leukemia, 20.7 µM; with TK-10 renal, 20.8 µM. Also, the TGI amounted to 38.2 µM in the assay on HOP-92 NSCLC; 35.5 µM in the assay with MALME-3M melanoma; 32.3 µM in the assay on MDA-MB-231 breast; 26.4 µM in the assay with SF-295 CNS; 32.1 µM in the assay with SK-MEL-5 melanoma; 32 µM in the assay on SN12C renal. The TGI in the assay with SNB-19 CNS is 42 µM; with SR leukemia, 41.3 µM; in the assay on TK-10 renal, 40.5 µM.
Take `O=C(C(=O)c1cc(Br)ccc1O)c1cc(Br)ccc1O`: the GI50 with HOP-62 NSCLC is 6.51 µM; in the assay with HOP-92 NSCLC it was 1.48 µM; in the assay with MALME-3M melanoma, 2.24 µM; in the assay on MDA-MB-231 breast, 5.33 µM; with SF-295 CNS, 1.98 µM; in the assay on SN12C renal it was 3.47 µM. Also, the GI50 in the assay on SNB-19 CNS was 4.39 µM; in the assay with SR leukemia it was 3.15 µM; with TK-10 renal, 3.44 µM. Besides, the TGI with HOP-62 NSCLC was determined as 34.9 µM; with HOP-92 NSCLC, 5.58 µM; in the assay on MALME-3M melanoma it was 6.12 µM; in the assay with MDA-MB-231 breast, 23 µM; in the assay on SF-295 CNS, 6.27 µM; in the assay with SN12C renal, 90.9 µM. The results for the TGI in the assay on SNB-19 CNS, in the assay with SR leukemia and in the assay with TK-10 renal were > 100 µM, 53.2 µM and 17.9 µM, respectively.
Take `COc1ccc(OCC(O)CN2CCN(c3ccc(Cl)cc3)CC2)cc1` (centres undefined): the GI50 in the assay on HOP-62 NSCLC is 28.4 µM; in the assay with HOP-92 NSCLC, 3.99 µM; with MALME-3M melanoma, 59.7 µM; with MDA-MB-231 breast, 66.1 µM; in the assay on SF-295 CNS it was > 100 µM; with SN12C renal, > 100 µM. Besides, the GI50 with SNB-19 CNS is 77.7 µM; in the assay on SR leukemia it was > 100 µM. Moreover, the TGI in the assay with HOP-62 NSCLC, in the assay with HOP-92 NSCLC, in the assay on MALME-3M melanoma, in the assay on MDA-MB-231 breast, in the assay with SF-295 CNS and with SN12C renal was > 100 µM in each case. Further, the TGI with SNB-19 CNS and in the assay with SR leukemia was > 100 µM in each case.
With `Nc1ncc(C2[C@H](CNC(=O)c3cc(Br)c[nH]3)C(CNC(=O)c3cc(Br)c[nH]3)[C@@H]2c2cnc(N)[nH]2)[nH]1` (some centres undefined), the GI50 in the assay on HOP-62 NSCLC is > 50 µM; with HOP-92 NSCLC, 43.7 µM; in the assay with MALME-3M melanoma, > 50 µM; in the assay with MDA-MB-231 breast, 8.01 µM; with SF-295 CNS, > 50 µM; in the assay with SK-MEL-5 melanoma, > 50 µM. Further, the GI50 with SN12C renal is 21.4 µM; with SR leukemia, 25.1 µM; with TK-10 renal, > 50 µM. The TGI in the assay on HOP-62 NSCLC, in the assay on HOP-92 NSCLC, with MALME-3M melanoma, in the assay on MDA-MB-231 breast, in the assay on SF-295 CNS and in the assay with SK-MEL-5 melanoma was > 50 µM each time. In addition, the TGI in the assay with SN12C renal, in the assay on SR leukemia and in the assay with TK-10 renal was > 50 µM throughout.
With `COc1cc(N(CCC#N)CCC#N)ccc1/C(N=Nc1ccc(C(=O)O)cc1)=N/NC(=O)c1cc(Br)ccc1O`, the GI50 in the assay on HOP-92 NSCLC was > 150 µg/mL; in the assay on MALME-3M melanoma, > 150 µg/mL; in the assay with MDA-MB-231 breast, 72.7 µg/mL; in the assay with SF-295 CNS, 96.4 µg/mL; in the assay with SK-MEL-5 melanoma, 69.7 µg/mL; in the assay with SN12C renal, 102 µg/mL. For the same compound, the GI50 in the assay on SNB-19 CNS is > 150 µg/mL; with SR leukemia it was 85.4 µg/mL. The TGI in the assay on HOP-92 NSCLC, with MALME-3M melanoma, with MDA-MB-231 breast, in the assay on SF-295 CNS, in the assay on SK-MEL-5 melanoma and with SN12C renal was > 150 µg/mL in each case. Further, the TGI in the assay with SNB-19 CNS and in the assay with SR leukemia was > 150 µg/mL throughout.

The values above are taken from PubChem BioAssay (NCI).
